Assay results from patent US6737383B1, “Herbicidal oxadiazolidines” (priority 1999, dated 2004).

Experiments:
giant foxtail = assay: Test B pre/postemergence giant foxtail; type: in vivo, Setaria faberii
In short: (§1)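 Herbicidal effect was estimated by eye on a ten-point control scale after plants spent twelve to sixteen days in a greenhouse following soil or foliar treatment. Foliar sprays targeted plants at one to four leaves; all doses were formulated in a non-phytotoxic solvent with surfactant.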

corn = assay: Test B pre/postemergence corn; type: in vivo, Zea mays
In short: as §1

pigweed = assay: Test B pre/postemergence pigweed; type: in vivo, Amaranthus retroflexus
In short: as §1

morningglory = assay: Test B pre/postemergence morningglory; type: in vivo, Ipomoea hederacea
In short: as §1

bedstraw = assay: Test B pre/postemergence bedstraw; type: in vivo, Galium aparine; conditions: Preemergence
In short: as §1

soybean = assay: Test B pre/postemergence soybean; type: in vivo, Glycine max
In short: as §1

crabgrass = assay: Test B pre/postemergence crabgrass; type: in vivo, Digitaria sanguinalis
In short: as §1

bamyardgrass = assay: Test B flood test barnyardgrass; type: in vivo, Echinochloa crus-galli
In short: (§2)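 Flood test on plants grown to the 2-leaf stage; treated plants kept in greenhouse twelve to sixteen days, then visually rated against controls on a 0 (no effect) to 10 (complete control) scale.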

rape = assay: Test B pre/postemergence rape; type: in vivo, Brassica napus
In short: as §1

duck salad = assay: Test B flood test duck salad; type: in vivo, Heteranthera limosa
In short: as §2

wild oat = assay: Test B pre/postemergence wild oat; type: in vivo, Avena fatua
In short: as §1

rice = assay: Test B flood test rice; type: in vivo, Oryza sativa
In short: as §2

blackgrass = assay: Test B pre/postemergence blackgrass; type: in vivo, Alopecurus myosuroides
In short: as §1

purple nutsedge = assay: Test B pre/postemergence purple nutsedge; type: in vivo, Cyperus rotundus
In short: as §1

sugar beet = assay: Test B pre/postemergence sugar beet; type: in vivo, Beta vulgaris
In short: as §1

velvetleaf = assay: Test B pre/postemergence velvetleaf; type: in vivo, Abutilon theophrasti
In short: as §1

cocklebur = assay: Test B pre/postemergence cocklebur; type: in vivo, Xanthium strumarium
In short: as §1

wheat = assay: Test B pre/postemergence wheat; type: in vivo, Triticum aestivum
In short: as §1

smallflower flatsedge = assay: Test B flood test smallflower flatsedge; type: in vivo, Cyperus difformis
In short: as §2

surinam grass = assay: Test B pre/postemergence surinam grass; type: in vivo, Brachiaria decumbens
In short: as §1

[1] = Postemergence, Rate 62 g/ha, scale 0 to 10, 0 is no effect, 10 is complete control
[2] = Postemergence, Rate 125 g/ha, scale of 0 to 10 where 0 is no effect and 10 is complete control
[3] = Preemergence, Rate 62 g/ha, scale of 0 to 10 where 0 is no effect and 10 is complete control
[4] = Preemergence, Rate 125 g/ha, scale of 0 to 10 where 0 is no effect and 10 is complete control
[5] = Preemergence, Rate 250 g/ha, scale 0 to 10 (0 no effect, 10 complete control)
[6] = Preemergence, Rate 500 g/ha, scale of 0 to 10 where 0 is no effect and 10 is complete control
[7] = Rate 500 g/ha, Postemergence, scale 0 to 10, 0 is no effect, 10 is complete control
[8] = Postemergence, Rate 250 g/ha, scale of 0 to 10, 0 is no effect, 10 is complete control
[9] = Rate 62 g/ha, flood test species, Pre-emergence, visual evaluation after twelve to sixteen days
[10] = Rate 125 g/ha, under heading Pre-emergence, flood test species, visual evaluation after twelve to sixteen days
[11] = Rate 250 g/ha, Pre-emergence (flood test species), scale 0 to 10, 0 is no effect, 10 is complete control
[12] = Rate 500 g/ha, Pre-emergence section of Table B, 0 to 10 scale (0 no effect, 10 complete control)

SMILES: C#CC=CC(C)(C)n1c(=O)on(C(=O)N(c2ccccc2)C(C)C)c1=O [Compound 655]
- Plant response rating, Giant foxtail (giant foxtail; [1]): 1
- Giant foxtail plant response rating (giant foxtail; [2]): 7
- Giant foxtail plant response rating (giant foxtail; [3]): 3
- Giant foxtail plant response rating (giant foxtail; [4]): 9
- Plant response rating, Giant foxtail (giant foxtail; [5]): 9
- Plant response rating, Giant foxtail (giant foxtail; [6]): 9
- Giant foxtail plant response rating (giant foxtail; [7]): 9
- Plant response rating, Corn (corn; [1]): 0
- Corn plant response rating (corn; [2]): 0
- Corn plant response rating (corn; [8]): 0
- Corn plant response rating (corn; [3]): 0
- Corn plant response rating (corn; [4]): 0
- Plant response rating, Corn (corn; [5]): 0
- Plant response rating, Corn (corn; [6]): 0
- Corn plant response rating (corn; [7]): 0
- Plant response rating, Redroot pigweed (pigweed; [1]): 1
- Redroot pigweed plant response rating (pigweed; [2]): 2
- Redroot pigweed plant response rating (pigweed; [3]): 0
- Redroot pigweed plant response rating (pigweed; [4]): 2
- Plant response rating, Redroot pigweed (pigweed; [5]): 2
- Plant response rating, Redroot pigweed (pigweed; [6]): 4
- Redroot pigweed plant response rating (pigweed; [7]): 7
- Plant response rating, Morningglory (morningglory; [1]): 9
- Morningglory plant response rating (morningglory; [8]): 9
- Morningglory plant response rating (morningglory; [3]): 0
- Morningglory plant response rating (morningglory; [4]): 0
- Plant response rating, Morningglory (morningglory; [5]): 0
- Plant response rating, Morningglory (morningglory; [6]): 0
- Bedstraw plant response rating (bedstraw; Rate 62 g/ha, scale of 0 to 10 where 0 is no effect and 10 is complete control): 0
- Bedstraw plant response rating (bedstraw; Rate 125 g/ha, scale of 0 to 10 where 0 is no effect and 10 is complete control): 0
- Plant response rating, Bedstraw (bedstraw; Rate 250 g/ha, scale 0 to 10 (0 no effect, 10 complete control)): 0
- Plant response rating, Bedstraw (bedstraw; Rate 500 g/ha, scale of 0 to 10 where 0 is no effect and 10 is complete control): 0
- Plant response rating, Soybean (soybean; [1]): 2
- Soybean plant response rating (soybean; [2]): 2
- Soybean plant response rating (soybean; [3]): 0
- Soybean plant response rating (soybean; [4]): 0
- Plant response rating, Soybean (soybean; [5]): 0
- Plant response rating, Soybean (soybean; [6]): 0
- Soybean plant response rating (soybean; [7]): 4
- Plant response rating, Crabgrass (crabgrass; [1]): 1
- Crabgrass plant response rating (crabgrass; [2]): 8
- Crabgrass plant response rating (crabgrass; [8]): 8
- Crabgrass plant response rating (crabgrass; [4]): 8
- Plant response rating, Crabgrass (crabgrass; [5]): 8
- Plant response rating, Crabgrass (crabgrass; [6]): 9
- Crabgrass plant response rating (crabgrass; [7]): 9
- Plant response rating, Barnyardgrass (0 to 10 scale, 0 is no effect, 10 is complete control) (bamyardgrass; [9]): 0
- Barnyardgrass plant response rating (0 to 10 scale, 0 is no effect, 10 is complete control) (bamyardgrass; [10]): 0
- Barnyardgrass plant response rating (bamyardgrass; [11]): 0
- Barnyardgrass plant response rating (bamyardgrass; [12]): 0
- Plant response rating, Rape (rape; [1]): 0
- Rape plant response rating (rape; [2]): 2
- Rape plant response rating (rape; [3]): 0
- Rape plant response rating (rape; [4]): 0
- Plant response rating, Rape (rape; [5]): 0
- Plant response rating, Rape (rape; [6]): 0
- Rape plant response rating (rape; [7]): 3
- Plant response rating, Ducksalad (0 to 10 scale, 0 is no effect, 10 is complete control) (duck salad; [9]): 0
- Ducksalad plant response rating (0 to 10 scale, 0 is no effect, 10 is complete control) (duck salad; [10]): 0
- Ducksalad plant response rating (duck salad; [11]): 0
- Ducksalad plant response rating (duck salad; [12]): 0
- Plant response rating, Wild oats (wild oat; [1]): 0
- Wild oats plant response rating (wild oat; [2]): 0
- Wild oats plant response rating (wild oat; [3]): 0
- Wild oats plant response rating (wild oat; [4]): 0
- Plant response rating, Wild oats (wild oat; [5]): 0
- Plant response rating, Wild oats (wild oat; [6]): 0
- Wild oats plant response rating (wild oat; [7]): 1
- Plant response rating, Rice (0 to 10 scale, 0 is no effect, 10 is complete control) (rice; [9]): 0
- Rice plant response rating (0 to 10 scale, 0 is no effect, 10 is complete control) (rice; [10]): 0
- Rice plant response rating (rice; [11]): 0
- Rice plant response rating (rice; [12]): 0
- Plant response rating, Blackgrass (blackgrass; [1]): 0
- Blackgrass plant response rating (blackgrass; [2]): 0
- Blackgrass plant response rating (blackgrass; [8]): 0
- Blackgrass plant response rating (blackgrass; [3]): 0
- Blackgrass plant response rating (blackgrass; [4]): 0
- Plant response rating, Blackgrass (blackgrass; [5]): 2
- Plant response rating, Blackgrass (blackgrass; [6]): 3
- Blackgrass plant response rating (blackgrass; [7]): 3
- Plant response rating, Nutsedge (purple nutsedge; [1]): 0
- Nutsedge plant response rating (purple nutsedge; [2]): 0
- Nutsedge plant response rating (purple nutsedge; [3]): 0
- Nutsedge plant response rating (purple nutsedge; [4]): 0
- Plant response rating, Nutsedge (purple nutsedge; [5]): 0
- Plant response rating, Nutsedge (purple nutsedge; [6]): 0
- Plant response rating, Sugarbeets (sugar beet; [1]): 0
- Sugarbeets plant response rating (sugar beet; [2]): 0
- Sugarbeets plant response rating (sugar beet; [3]): 0
- Sugarbeets plant response rating (sugar beet; [4]): 0
- Plant response rating, Sugarbeets (sugar beet; [5]): 0
- Plant response rating, Sugarbeets (sugar beet; [6]): 0
- Sugarbeets plant response rating (sugar beet; [7]): 2
- Plant response rating, Velvetleaf (velvetleaf; [1]): 0
- Velvetleaf plant response rating (velvetleaf; [2]): 0
- Velvetleaf plant response rating (velvetleaf; [3]): 0
- Velvetleaf plant response rating (velvetleaf; [4]): 0
- Plant response rating, Velvetleaf (velvetleaf; [5]): 0
- Plant response rating, Velvetleaf (velvetleaf; [6]): 0
- Velvetleaf plant response rating (velvetleaf; [7]): 0
- Plant response rating, Cocklebur (cocklebur; [1]): 0
- Cocklebur plant response rating (cocklebur; [2]): 0
- Cocklebur plant response rating (cocklebur; [8]): 0
- Cocklebur plant response rating (cocklebur; [3]): 0
- Cocklebur plant response rating (cocklebur; [4]): 0
- Plant response rating, Cocklebur (cocklebur; [5]): 0
- Plant response rating, Cocklebur (cocklebur; [6]): 0
- Cocklebur plant response rating (cocklebur; [7]): 0
- Plant response rating, Wheat (wheat; [1]): 0
- Wheat plant response rating (wheat; [2]): 0
- Wheat plant response rating (wheat; [3]): 0
- Wheat plant response rating (wheat; [4]): 0
- Plant response rating, Wheat (wheat; [5]): 0
- Plant response rating, Wheat (wheat; [6]): 0
- Wheat plant response rating (wheat; [7]): 0
- Plant response rating, S. Flatsedge (0 to 10 scale, 0 is no effect, 10 is complete control) (smallflower flatsedge; [9]): 0
- S. Flatsedge plant response rating (0 to 10 scale, 0 is no effect, 10 is complete control) (smallflower flatsedge; [10]): 0
- S. Flatsedge plant response rating (smallflower flatsedge; [11]): 0
- S. Flatsedge plant response rating (smallflower flatsedge; [12]): 0
- Plant response rating, B. signalgrass (surinam grass; [1]): 0
- Plant response rating, B. signalgrass (surinam grass; [2]): 0
- B. signalgrass plant response rating (surinam grass; [8]): 2
- B. signalgrass plant response rating (surinam grass; [3]): 0
- B. signalgrass plant response rating (surinam grass; [4]): 0
- Plant response rating, B. signalgrass (surinam grass; [5]): 0
- Plant response rating, B. signalgrass (surinam grass; [6]): 0
- B. signalgrass plant response rating (surinam grass; [7]): 2
